Experimental data as given in article PMC9321043, “Synthesis, Structure–Activity Relationships, and Parasitological Profiling of Brussonol Derivatives as New Plasmodium falciparum Inhibitors” (Pharmaceuticals, 2022).

What was measured:
P. falciparum = test: Speed-of-action assay; type: cell-based, Plasmodium falciparum; conditions: for speed of action: IC50 compared after 24, 48 and 72 h of drug exposure; for time of parasite death (morphological development, pyknotic nuclei): highest concentration evaluated, Giemsa smears at 0, 24, 48, 72 h
Procedure: The speed-of-action assay assesses the inhibitory activity of the tested compounds after 24, 48, and 72 h of drug exposure. […] Moreover, to confirm the speed-of-action, the morphological development of the parasite in parallel with the IC50 assessment was verified. The parasites in the negative control wells developed according to the expected timeline (Figure 5a). […] Brussonol caused parasite death within the first 24 h of incubation as observed for artesunate (Figure 5a).
In this method, three 96-well plates were prepared by adding 180 µL of the parasite’s inoculum with 0.5% parasitemia and 2% hematocrit. A serial dilution of the compounds was added to each plate; the starting concentration for brussonol was 6× IC50, while for artesunate and pyrimethamine (fast- and slow-acting controls, respectively) were 10× IC50. In addition, a positive and negative control, which corresponded to parasite cultures with no addition of inhibitor and non-parasitized erythrocytes, respectively, were used for the parasite’s control growth. Each plate was treated for a different period (24, 48, or 72 h), and the first two plates were washed twice with fresh medium to remove the inhibitor, followed by incubation of 48 and 24 h, respectively. […] A statistical analysis using a one-way ANOVA test was done to compare each time point using GraphPad Prism version 8.0.1 for Windows, GraphPad Software, San Diego, California USA, www.graphpad.com, accessed on 1 February 2022. In parallel, the morphological development of the parasite under the compounds’ pressure was assessed by adding the compounds tested at the highest concentration evaluated. Blood smears of each well were made and stained at time points 0, 24, 48, and 72 h.

hemozoin formation = test: Hemozoin formation inhibition assay; type: biochemical; conditions: hemin 25 µM, pH 4.8, 4 h, one experiment in triplicate
Procedure: 2. Hemozoin Formation Inhibition Assay
The hemozoin formation inhibition assay was performed as described previously.12 Briefly, serial 1:3 dilutions, in a 96‐well plate, wit h brussonol were made in a final volume of 20 μL in a concentration 10 times higher than the final concentration of the assay. Secondly, 90 μ L of freshly prepared hemin (at a final concentration of 25 μM) solution in 1M NaOAc/HOAc buffer pH 4.8 were added followed by addition of 90 μ L of 5.4 mg/L Tween 20 solution freshly prepared. The plates were let to stand for 4 hours at 37 °C followed by resuspension with multichannel pippete and read at 415 and 630 nm using a SpectraMAX Plus 384 plate reader (Molecular Devices Corp., Sunnyvale, CA).
Due to the absence of enough compound, this experiment wa s performed only once, but with internal triplicate. Chloroquine (CQ) and pyrimethamine (PYR) were used as positive and negative control of inhibition, respectively.
Inhibition (%) = 100 – 100 x [(Aco ntro l – Asample) / (Acontrol - Amin)] Acontrol is the difference of the absorbance at 415 and 630 nm of the negative control (Hemin +, Tween 20 ‐, Compound ‐); Amin is the difference of the absorbance at 415 and 630 nm of the positive control (Hemin +, Tween 20 +, Compound ‐ ); Asample is the difference of the absorbance at 415 and 630 nm of the sample. The hemozoin formation inhibition assay was performed to evaluate if brussonol act inhibiting hemozoin formation in P. falciparum. CQ, which is a well‐known inhibitor of hemozoin […]
Figure S1. Hemozoin formation inhibition assay. Different concentrations of CQ (black triangles), PYR (red squares) and brussonol (blue circles) were incubated with heme in triplicates. Th e absorbance was recorded at 415/630 nm to determine the hemozoin formation inhibition. […]

[1] = test system: P. falciparum (3D7 strain); test: In vitro antiplasmodial activity, P. falciparum blood-stage parasites, SYBR Green I; type: cell-based, Plasmodium falciparum; conditions: Plasmodium falciparum, 3D7, 3D7 strain, Table 2 strain panel; read-out: IC50
Procedure: The P. falciparum strains were cultivated in human blood cells (hRBC) O^+, while P. knowlesi was cultivated in rhesus red blood cells (rRBC) as described. P. falciparum complete RPMI (consisting of RPMI-1640, supplemented with 0.2% NaHCO3, 25 mM HEPES (pH 7.4), 11 mM D-glucose, 10 mg/L hypoxanthine, 25 mg/L gentamicin, and 0.5% (m/v) AlbuMAX II). The parasitemias of these cultures were maintained below 10% with 2.5% hematocrit. P. knowlesi complete RPMI (consisting of RPMI-1640 supplemented with 25 mM HEPES, […] hypoxanthine, 0.26% NaHCO3, 10 mg/L gentamicin, and 1% Albumax II). This culture was maintained with RBCs up to 5% hematocrit. The culture medium was changed daily, and all cultures were maintained under a 90% N2/5% CO2/5% O2 gas mixture at 37 °C. All compounds were purchased from Sigma-Aldrich (Cotia, Brazil).
The antiplasmodial activity of brussonol and derivatives was evaluated against P. falciparum blood parasites 3D7(chloroquine-sensitive). The parasites were synchronized through sterile 5% (m/v) D-sorbitol treatment over 10 min at 37 °C for the enrichment of ring stages. Centrifugation 600× g over 5 min was used to pellet the cultures. The parasitemia was determined by microscope analysis of thin blood smears stained with Giemsa 10% (v/v) after fixation with methanol. The initial parasitemia was calculated for 1000 red blood cells (RBCs), and cultures were diluted to 0.5% parasitemia and 2% hematocrit by the addition of the appropriate volumes of blood and medium. A total of 180 µL aliquots of parasites were distributed into 96-well plates followed by the addition of 20 µL of previously prepared aliquots of ten-fold concentrated compounds, the range of concentrations tested was 10–1.53 µM. Negative and positive control wells, which correspond to non-parasitized erythrocytes and parasite cultures in the absence of compounds, were set in parallel. The DMSO concentration was maintained below 0.05% (v/v) for all compounds except for brussonol, which was 0.5%. The plates were incubated for 72 h at 37 °C in a humidified incubator with a gas mixture of 90% N2, 5% O2, and 5% CO2. Each test was performed in duplicates, and the results were compared with the control cultures. Once completed incubation, the culture medium was removed, and the cells were resuspended in 100 µL PBS (116 mM NaCl, 10 mM NaH2PO4, 3 mM KH2PO4) and lysed with 100 µL lysis buffer (20 mM Tris base, 5 mM EDTA, 0.0008% (v/v) Triton X-100, 0.008% (m/v) saponin, pH 8.0) containing 0.002% (v/v) SYBR Green I. Plates were incubated for 30 min at room temperature, and a SpectraMAX Gemini EM plate reader (Molecular Devices Corp., Sunnyvale, CA) was used to determine the fluorescence corresponding to parasitic density (excitation at 485 nm, emission at 535 nm). The half-maximal inhibitory concentration (IC50^Pf) was determined by non-linear regression analysis of the resulting concentration–response curve using the software GraphPad Prism version 8.0.1 for Windows, GraphPad Software, San Diego, California USA, www.graphpad.com, accessed on 3 March 2022”.

P. falciparum Dd2 strain = test: Resistance assessment, Dd2 strain; type: cell-based; conditions: Plasmodium falciparum
P. falciparum K1 strain = test: Resistance assessment, K1 strain; type: cell-based; conditions: Plasmodium falciparum
[2] = test system: P. falciparum TM90C6B strain; test: Resistance assessment, TM90C6B strain; type: cell-based; conditions: Plasmodium falciparum
[3] = test system: P. falciparum 3D7^r_MMV848 strain; test: Resistance assessment, 3D7r-MMV848 strain; type: cell-based; conditions: Plasmodium falciparum

| Structure (SMILES) | speed of action (P. falciparum) | time of parasite death (morphological development, pyknotic nuclei) (P. falciparum) | hemozoin formation inhibition (in words) (hemozoin formation) | IC50 [1] | IC50 (P. falciparum Dd2 strain) | IC50 (P. falciparum K1 strain) | IC50 [2] | IC50 [3] |
| --- | --- | --- | --- | --- | --- | --- | --- | --- |
| CCc1nc(N)nc(N)c1-c1ccc(Cl)cc1 [pyrimethamine] | slow-acting inhibitor | at the 48 and 72 h time points | no inhibition profile up to 1.4 mM | 60 ± 10 nM | > 10000 nM | > 10000 nM | – | – |
| O=C1C(O)=C([C@H]2CC[C@H](c3ccc(Cl)cc3)CC2)C(=O)c2ccccc21 [atovaquone, reference compound] | – | – | – | 0.7 ± 0.3 nM | – | – | 3000 ± 1000 nM | – |
| C[C@H]1[C@H](OC(=O)CCC(=O)O)O[C@@H]2O[C@@]3(C)CC[C@H]4[C@H](C)CC[C@@H]1[C@@]24OO3 [artesunate] | fast-acting inhibitor | ≤ 24 h | – | 8 ± 4 nM | 11 ± 8 nM | 7 ± 3 nM | 6 ± 2 nM | 13 ± 8 nM |
